Source: patent publication US20050267050A1, “Compositions and methods for treating mdma-induced toxicity” (YEDA RESEARCH AND DEVELOPMENT CO. LTD., priority 2002, published 2005)

Experiments:
Assay type in all cases: in vivo
[1] = tested on: MC1 cDNA; experiment: DD-PCR analysis of brain mRNA of MDMA-treated mice; parameters: key to Intensity of MC1 cDNA band, MDMA, F. Cortex / Intensity of MC1 cDNA band, MDMA, MidBrain: − (lowest); ++ (highest); conditions: 2 hr
Protocol: (§1) Young adult male C57BI/6J mice (2-3 months old) were injected intraperitoneally with 0.25 ml saline (control) or saline containing MDMA (10 mg/kg). Unless otherwise indicated, mice were sacrificed 2 hr after drug treatment and frontal cortex and/or midbrain were rapidly dissected in ice-cold saline. The dissected brain tissue was frozen on dry ice, 0.5 ml Tri Reagent was added, and samples were stored at −70° C. Serotonin transporter knockout mice (−/−) (Bengel et al., 1998) were used when indicated.
Frontal cortex or midbrain samples frozen with Tri Reagent were crushed, 1 ml Tri Reagent was added and total RNA was isolated according to the manufacture's protocol. RNA samples were treated with RNase-free DNase I for 30 minutes at 37° C. and RNA quality and yield was verified on 1.2% formaldehyde agarose gel. First-strand cDNA was prepared from 0.5 μg total RNA as template and 0.8 μM (dT)12GC, (dT)12CC or oligo(dT)18 as a primer, using Superscript amplification kit. DD-PCR (differential display-PCR) was carried out in 20 μl total volume, and included 0.8 μM of one of the 3′ primers (dT)12GC, (dT)12CC or (dT)12, the arbitrary 5′ primer 5′-GGACAGCTTC-3′, 2.5 μM dNTP, 2.5 mM MgCl2, 2 μCi α-^33P-[dATP] (3000 Ci/mM), cDNA prepared from 50 ng total RNA, and 2.5 units of Taq DNA polymerase. The DD-PCR reaction was started with 3 minutes incubation at 94° C., followed with 40 cycles of 30 sec at 94° C., 2 minutes at 40° C. and 30 sec at 72° C., and finally 5 minutes at 72° C. Then, 10 μl of the reaction was mixed with 10 μl of 95% formamide containing 0.05% bromophenol blue and 0.05% xylene cyanol, and incubated for 5 minutes at 75° C. An aliquot (6 μl) was analysed on a denatured DNA sequencing gel. The gel was dried and exposed to Phosphoimage Analyzer (Fujix) or to X-ray film. The DNA bands expressed differentially upon MDMA-treatment were identified, cut from the gel, socked in H2O, boiled for 15 minutes and centrifuged (10000 g). […]

[2] = tested on: mGAT1 protein; experiment: Western immunoblotting with anti-GAT1 antibodies, MDMA-treated mice; conditions: for GAT1 protein, fold of control: SERT knockout (−/−) mice; for Increase of GAT1 immunoreactivity: wild type mice
Protocol: as §1
Protein was isolated with Tri Reagent according to the protocol provided by the manufacturer. After precipitation with isopropanol, the protein pellet was washed three times with 0.3M guanidine hydrochloride and 95% ethanol, followed by washing with ethanol, dried, and dissolved in 10 M urea containing 50 mM dithiothreitol (DTT). Samples were kept at room temperature for 1 hr before boiling for 3 minutes, sonicated on ice for 2 minutes, and stored at −20° C. Protein concentration was determined with the micro BCA protein assay reagent kit. Samples of 30 μg protein run on SDS-PAGE (5% stacking gel and 8% or 10% separating gel), with Kaleidoscope pre-stained standard proteins as molecular weight markers. The proteins were transferred to nitrocellulose membranes preincubated for 2 hr in Tris-buffered saline (TBS) with 10% non-fat dry milk and 0.1% Tween 20, and incubated overnight at 4° C. or 2 hr at room temperature with anti-GAT1 antibodies (1:500 in TBS containing 5% non-fat dry milk). Membranes were then washed three times with TBS containing 0.1% Tween 20, incubated for 2 hr at room temperature with the second antibody, horseradish peroxidase coupled to F(ab)2 anti-rabbit IgG, washed four times with the same buffer, and subjected to ECL Western immublotting detection reagents.
It was essential to determine whether the MDMA-induced increase in mGAT1 mRNA was correlated with a similar change in protein level. […] These anti-GAT1 antibodies were also useful to verify MDMA effect on the expression of mGAT1 in the SERT knockout mice (−/−) that behaviorally are nonresponsive to MDMA (Bengel et al., 1998).

[3] = tested on: mGAT4; experiment: Semi-quantitative RT-PCR of brain mRNA of MDMA-treated mice; conditions: for Increase of mGAT4 mRNA level: MDMA 10 mg/kg i.p., 2 hr, GAPDH for semi-quantitation; for Return of mGAT4 increase to control levels: within 2 days
[4] = tested on: mGAT2; experiment: as above
[5] = tested on: mGAT4; experiment: Real-time PCR analysis of midbrain RNA of MDMA-treated mice
Protocol: as §1
(§2) Real-time PCR analysis was performed with the LightCycler System (Roche Molecular Biochemicals) and LightCycler-FastStart DNA Master SYBR Green I, according to the manufacturer instructions. Reactions (in 20 μl) included template cDNA prepared from 0.1-0.5 μg total RNA, 3 mM MgCl2 and 0.25-0.5 μM primers. Buffer, dNTP mixture (with dUTP instead of dTTP), Taq DNA polymerase, and SYBR Green I dye were included in the ‘Hot start’ reaction as recommended. Typical protocol was as follows. Ten minutes at 95° C. followed by 40 cycles of amplification, starting with 15 sec at 95° C., 10 sec at 60° C. and 10 sec at 72° C. The extension period varied with each specific primer, depending on the product length (about 1 sec/25 bp).
(§3) For quantification analysis, 3-5 standards of PCR products with known concentration were amplified under the same cycling conditions, and GAPDH was amplified as an internal control to correct for variations in the amount of cDNA. Real-time PCR products of each assay were also subjected to agarose gel electrophoresis, to further confirm amplification specificity. Quantitation was assessed with LightCycler Data Analysis (LCDA) software by the Fit Points method. Melting curve of the cDNA product was determined by incubation at 95° C. for 0 sec, 15 sec at 65° C. and 0 sec at 95° C., followed by a cooling of 30 sec at 40° C.
(§4) RNA extracted from the midbrain of saline- or MDMA-treated mice was analyzed with the LightCycler System, using specific primers for mGAT1 and mGAT4, along with GAPDH as a control (see Materials and Methods). […] (FIG. 4F).

[6] = tested on: mGAT1; experiment: as above
Protocol: as §1, §2, §3, §4

[7] = tested on: GAPDH; experiment: as above
Protocol: as §1, §2, §3, §4

[8] = tested on: MG2 cDNA; experiment: DD-PCR analysis of brain mRNA of MDMA-treated mice; parameters: key: − (lowest); ++ (highest); conditions: MDMA one i.p. injection, 10 mg/kg, 2 hr; frontal cortex
Protocol: as §1
(§5) Frontal cortex or midbrain samples frozen with Tri Reagent were crushed, 1 ml Tri Reagent was added and total RNA was isolated according to the manufacture's protocol. RNA samples were treated with RNase-free DNase I for 30 minutes at 37° C. and RNA quality and yield was verified on 1.2% formaldehyde agarose gel. First-strand cDNA was prepared from 0.5 μg total RNA as template and 0.8 μM (dT)12GC, (dT)12CC or oligo(dT)18 as a primer, using Superscript amplification kit. DD-PCR (differential display-PCR) was carried out in 20 μl total volume, and included 0.8 μM of one of the 3′ primers (dT)12GC, (dT)12CC or (dT)12, the arbitrary 5′ primer 5′-GGACAGCTTC-3′, 2.5 μM dNTP, 2.5 mM MgCl2, 2 μCi α-^33P-[dATP] (3000 Ci/mM), cDNA prepared from 50 ng total RNA, and 2.5 units of Taq DNA polymerase. The DD-PCR reaction was started with 3 minutes incubation at 94° C., followed with 40 cycles of 30 sec at 94° C., 2 minutes at 40° C. and 30 sec at 72° C., and finally 5 minutes at 72° C. Then, 10 μl of the reaction was mixed with 10 μl of 95% formamide containing 0.05% bromophenol blue and 0.05% xylene cyanol, and incubated for 5 minutes at 75° C. An aliquot (6 μl) was analysed on a denatured DNA sequencing gel. The gel was dried and exposed to Phosphoimage Analyzer (Fujix) or to X-ray film. The DNA bands expressed differentially upon MDMA-treatment were identified, cut from the gel, socked in H2O, boiled for 15 minutes and centrifuged (10000 g). Ten μl of the supernatant was used as template to re-amplify the band of interest, with the same primers and PCR conditions described for DD-PCR except that 25 μM dNTP and no isotopes were used. Ten μl of the PCR reaction was run on a 2% agarose gel. The band of the predicted size was excised, purified with DNA extraction kit, and cloned into pGEM-T Easy Vector. Plasmid DNA from successful clones was purified with Plasmid Mini Kit and subjected for sequencing (Biological Services, Weizmann Institute of Science). Sequence data were compared with GeneBank (NCBI).
(§6) Total RNA from frontal cortex (“FC”) and midbrain (“MB”) of saline—(denoted as “−”) and MDMA-treated (denoted as “+”) mice (one i.p. injection, 10 mg/kg, 2 hr) were used for DD-PCR analysis. The random primers used were dT12CC for MC1, dT12GG for MG3, MG4, MG5 and MG6, and dT18 for G1. Different but characteristic cDNA products were obtained with each one of the three primers. […] Some of the altered expression levels are common for both brain regions while others are specific either to the frontal cortex or the midbrain.

[9] = tested on: MC2 cDNA; experiment: DD-PCR analysis of brain mRNA of MDMA-treated mice; parameters: key: − (lowest); ++ (highest); conditions: MDMA one i.p. injection, 10 mg/kg, 2 hr
Protocol: as §1, §5, §6

[10] = tested on: MG5 cDNA; experiment: DD-PCR analysis of brain mRNA of MDMA-treated mice; parameters: key: − (lowest); ++ (highest); conditions: MDMA one i.p. injection, 10 mg/kg, 2 hr
Protocol: as §1, §5, §6

[11] = tested on: MG3 cDNA; experiment: DD-PCR analysis of brain mRNA of MDMA-treated mice; parameters: key: − (lowest); ++ (highest); conditions: MDMA one i.p. injection, 10 mg/kg, 2 hr
Protocol: as §1, §5, §6

[12] = tested on: mGAT1; experiment: Semi-quantitative RT-PCR of brain mRNA of MDMA-treated mice; conditions: for Increase of mGAT1 expression, estimated by scanning: MDMA 10 mg/kg i.p., 2 hr, GAPDH as standard
[13] = tested on: G1 cDNA (mGAT1); experiment: DD-PCR analysis of brain mRNA of MDMA-treated mice; parameters: key to Intensity of G1 cDNA band, MDMA, F. Cortex: − (lowest); ++ (highest); conditions: 2 hr
Protocol: as §1
Frontal cortex or midbrain samples frozen with Tri Reagent were crushed, 1 ml Tri Reagent was added and total RNA was isolated according to the manufacture's protocol. RNA samples were treated with RNase-free DNase I for 30 minutes at 37° C. and RNA quality and yield was verified on 1.2% formaldehyde agarose gel. First-strand cDNA was prepared from 0.5 μg total RNA as template and 0.8 μM (dT)12GC, (dT)12CC or oligo(dT)18 as a primer, using Superscript amplification kit. DD-PCR (differential display-PCR) was carried out in 20 μl total volume, and included 0.8 μM of one of the 3′ primers (dT)12GC, (dT)12CC or (dT)12, the arbitrary 5′ primer 5′-GGACAGCTTC-3′, 2.5 μM dNTP, 2.5 mM MgCl2, 2 μCi α-^33P-[dATP] (3000 Ci/mM), cDNA prepared from 50 ng total RNA, and 2.5 units of Taq DNA polymerase. […] An aliquot (6 μl) was analysed on a denatured DNA sequencing gel. […]

[14] = tested on: MC2, MG2 and MG4 cDNAs; experiment: Semi-quantitative RT-PCR of brain mRNA of MDMA-treated mice; conditions: FIG. 2B, MDMA 10 mg/kg i.p., 2 hr
[15] = MDMA one i.p. injection, 10 mg/kg, frontal cortex
[16] = both frontal cortex and midbrain, MDMA 10 mg/kg i.p.

## CNC(C)Cc1ccc2c(c1)OCO2 (stereo not shown) [MDMA, 3,4-Methylenedioxymethamphetamine]
[1]; [15]
  Intensity of MC1 cDNA band, MDMA, F. Cortex: −
[1]; MDMA one i.p. injection, 10 mg/kg, midbrain
  Intensity of MC1 cDNA band, MDMA, MidBrain: −
[1]; [16]
  Change of cDNA band MC1 in MDMA-treated mice (FIG. 1B): profound decrease
[2]; frontal cortex
  GAT1 protein, fold of control: 1.3 fold
  Increase of GAT1 immunoreactivity: 2.1 fold
[2]; midbrain
  GAT1 protein, fold of control: 1.0 fold
  Increase of GAT1 immunoreactivity: 2.4 fold
[2]; SERT −/− mice
  Induction of GAT1 protein upon MDMA treatment: no significant induction
[3]; frontal cortex
  Increase of mGAT4 mRNA level: 4.6 fold
  Return of mGAT4 increase to control levels: partially
[3]; midbrain
  Increase of mGAT4 mRNA level: 1.7 fold
  Return of mGAT4 increase to control levels: completely
[4]; MDMA 10 mg/kg i.p., 2 hr, frontal cortex and midbrain
  Effect on mGAT2 expression: insignificant effect
[4]; from 2 hours to 7 days after treatment
  mGAT2 expression in time course: did not change
[5]
  Increase in mGAT4/GAPDH ratio compared with controls: 1.52 fold
[6]
  Net increase in mGAT1 levels (corrected for GAPDH): 5.2 fold
[6]; control 3.43×10^−5 pmole
  mGAT1 expression after MDMA treatment (real-time PCR amount): 0.000211 pmol
[7]
  Increase of GAPDH level: 19%
[7]; control 514×10^−5 pmole
  GAPDH level after MDMA treatment (real-time PCR amount): 0.00612 pmol
[8]
  Intensity of MG2 cDNA band, MDMA, F. Cortex: ++
[9]
  Intensity of MC2 cDNA band, MDMA, MidBrain: ++
[10]; frontal cortex
  Intensity of MG5 cDNA band, MDMA, F. Cortex: −
[10]; midbrain
  Intensity of MG5 cDNA band, MDMA, MidBrain: −
[11]; frontal cortex
  Intensity of MG3 cDNA band, MDMA, F. Cortex: −
[11]; midbrain
  Intensity of MG3 cDNA band, MDMA, MidBrain: −
[12]; frontal cortex
  Increase of mGAT1 expression, estimated by scanning: 1.58 fold
[12]; midbrain
  Increase of mGAT1 expression, estimated by scanning: 1.74 fold
[12]; time course 2 hours-7 days after treatment
  Time for which MDMA effect on mGAT1 expression sustained: 7 days
[13]; [15]
  Intensity of G1 cDNA band, MDMA, F. Cortex: ++
[13]; [16]
  Change of intensity of cDNA G1 in MDMA-treated mice (FIG. 1C): increased
[14]
  MDMA-induced changes of MC2, MG2 and MG4 expression: 1.5-2.2 fold
